# Entries after “also recorded” stand apart in the source; their conditions may differ. Read-outs that look alike come from different tables or passages of the source.
# Legend:
# [1] = tested on: SARS-CoV-2; conditions: ref 43 (van Breemen et al.); cited from earlier work
# [2] = tested on: SARS-CoV-2; conditions: lung epithelial cells; ref 41 (Nguyen et al.); cited from earlier work
# [3] = tested on: influenza virus; conditions: cited from earlier work
# [4] = tested on: VSV-pseudotypes bearing SARS-CoV-2 S protein; assay: microbe, parasite or virus in culture; assay type: cell-based; conditions: for inhibitory effect on SARS-CoV-2 entry (in words): 1-100 μg/mL; for IC50: Severe acute respiratory syndrome coronavirus 2, HEK-293T, read-out: IC50, SARS-CoV-2 entry
# [5] = tested on: VSV-pseudotypes bearing SARS-CoV-1 S protein; assay: microbe, parasite or virus in culture; assay type: cell-based; conditions: for inhibitory effect on SARS-CoV-1 virus entry (in words): 1-100 μg/mL
# [6] = tested on: influenza virus A/Puerto Rico/8/34; assay type: cell-based
# [7] = tested on: influenza virus A/Puerto Rico/8/34; assay type: cell-based; remark: listed apart in the source
structure (smiles),measurement,setting,value
"CCCCCc1cc(O)c(C/C=C(\C)CCC=C(C)C)c(O)c1C(=O)O [CBGA, cannabigerolic acid]",block of SARS-CoV-2 entry into cells (in words),[1],significantly block SARS-CoV-2 entry
"C=C(C)[C@@H]1CCC(C)=C[C@H]1c1c(O)cc(CCCCC)cc1O [CBD, cannabidiol]",inhibition of SARS-CoV-2 replication (in words),[2],inhibit SARS-CoV-2 replication
COc1ccc2cc([C@H](C)C(=O)O)ccc2c1 [naproxen],anti-influenza virus activity (in words),[3],broad anti-influenza virus activity
"C=C(C)[C@@H]1CCC(C)=C[C@H]1c1c(O)cc(CCCCC)c(C(=O)O)c1O [CBDA, cannabidiolic acid]",block of SARS-CoV-2 entry into cells (in words),[1],significantly block SARS-CoV-2 entry
C=C(C)C1CCC(C)=CC1c1c(OC(=O)C(C)c2ccc(CC(C)C)cc2)cc(CCCCC)cc1OC(=O)C(C)c1ccc(CC(C)C)cc1 (centres unmarked) [CBD-I],inhibitory effect on SARS-CoV-2 entry (in words),[4],significantly inhibited; also recorded: significantly reduced
same,IC50,[4],< 1 µg/mL
same,inhibitory effect on SARS-CoV-1 virus entry (in words),[5],did not find any significant inhibitory effect
C=C(C)C1CCC(C)=CC1c1c(OC(=O)C(C)c2cccc(C(=O)c3ccccc3)c2)cc(CCCCC)cc1OC(=O)C(C)c1cccc(C(=O)c2ccccc2)c1 (centres unmarked) [CBD-K],inhibitory effect on SARS-CoV-2 entry (in words),[4],non-significant decrease in luciferase activity; also recorded: did not significantly affect
same,inhibitory effect on SARS-CoV-1 virus entry (in words),[5],did not find any significant inhibitory effect
C=C(C)C1CCC(C)=CC1c1c(OC(=O)C(C)c2ccc3cc(OC)ccc3c2)cc(CCCCC)cc1OC(=O)C(C)c1ccc2cc(OC)ccc2c1 (centres unmarked) [CBD-N],fold inhibition of SARS-CoV-2 entry,[4],greater than 10 fold
same,inhibitory effect on SARS-CoV-2 entry (in words),[4],significantly inhibited; also recorded: significantly reduced
same,IC50,[4],< 1 µg/mL
same,viral copy numbers in the supernatants vs mock,[6],did not find any effect
same,viral copy numbers in the supernatants vs mock,[7],did not find any effect
same,"fold reduction in luciferase activity, SARS-CoV-1",[5]; 1 μg/mL,approximately 2 fold
same,"fold decrease in luciferase activity, SARS-CoV-1",[5]; 50 μg/mL,greater than 10 fold
same,"fold decrease in luciferase activity, SARS-CoV-1",[5]; 100 μg/mL,greater than 10 fold
same,inhibitory effect on SARS-CoV-1 virus entry (in words),[5],significant reduction; also recorded: significant inhibitory activity
same,IC50,"[5]; Severe acute respiratory syndrome coronavirus, HEK-293T, read-out: IC50, SARS-CoV-1 virus entry",< 1 µg/mL
C=C(C)[C@@H]1CCC(CO)=C[C@H]1c1c(O)cc(CCCCC)cc1O [7-OH-CBD],inhibition of SARS-CoV-2 replication (in words),[2],inhibit SARS-CoV-2 replication

# — paper PMC10383849, “Novel Molecular Consortia of Cannabidiol with Nonsteroidal Anti-Inflammatory Drugs Inhibit Emerging Coronaviruses’ Entry” (Pathogens, 2023)
